Experimental data published in patent publication US11433070B2, “Synergistic anti-inflammatory compositions” (The Procter & Gamble Company, priority 2019, dated 2022).

Columns and labels:
[1] = test system: PGE2 release from TERT keratinocytes (tKC); test: PGE2 assay: inhibition of PGE2 release from UVB-stressed keratinocytes, normalized to ATP; type: cell-based, human; conditions: for AVG PGE2 % Control / AVG PGE2 % Inhibition: piroctone olamine 1E-7% (w/v), alone or combined (observed), 15 mJ/cm2 UVB, 18-24 h; for Inhibiting PGE2 release from keratinocytes, individually (in words): each material alone
Excerpt: Inhibiting the Cell's Inflammation Response to a Stressor-Prostaglandin E2 (“PGE2”) Assay. […] PGE2 is a hormone-like substance that is known to participate in modulation of inflammation. Cellular inflammation is associated with a variety of hair, skin and scalp conditions, and thus inhibiting PGE2 activation vis-à-vis cellular inflammation may help treat these types of hair, skin and scalp conditions. TERT keratinocytes (tKC) are human keratinocytes which have been transfected with the human telomerase reverse transcriptase gene to immortalize the cells. They are obtained from Jerry Shay, University of Texas, Southwestern and plated at 40,000 cells/well into 24-well plates in 1 ml/well volume. EpiLife Medium (Life Technologies cat #[…]500) supplemented with keratinocyte growth supplement (Life technologies cat #S-001-5) is used as the assay media. The cells are grown to confluence/near confluence, (typically 24 hours after plating 40,000 cells/well in 24 well plate) and then subjected to 15 mJ/cm^2 UVB-stress (typically 14-16 exposure time in BioSun). […] The supernatant is removed from each well, and the cells are rinsed with 2 ml/well medium (without supplements). A Cell Titer-Glo assay (Promega cat #G7571; Madison Wis.) is used to measure ATP activity, which is conducted on the cells for normalization. The supernatant is tested in a PGE2 assay (Prostaglandin E2 Assay kit from Cisbio Bioassays cat #62P2APEB) according to the manufacturer's instructions. The PGE2 results are normalized to ATP activity. The PGE2 quantitation (pg/mL) from the supernatant is divided by the normalization factor (treatment ATP/control ATP). […] Synergy factor is simply the ratio of observed combination/expected combination.

TERT keratinocytes (tKC) = test: Cell Titer-Glo assay measuring ATP activity, used for normalization; type: cell-based, human; conditions: example calculation; vehicle control 704567
Description: TERT keratinocytes (tKC) are human keratinocytes which have been transfected with the human telomerase reverse transcriptase gene to immortalize the cells. They are obtained from Jerry Shay, University of Texas, Southwestern and plated at 40,000 cells/well into 24-well plates in 1 ml/well volume. EpiLife Medium (Life Technologies cat #[…]500) supplemented with keratinocyte growth supplement (Life technologies cat #S-001-5) is used as the assay media. The cells are grown to confluence/near confluence, (typically 24 hours after plating 40,000 cells/well in 24 well plate) and then subjected to 15 mJ/cm^2 UVB-stress (typically 14-16 exposure time in BioSun). […] The supernatant is removed from each well, and the cells are rinsed with 2 ml/well medium (without supplements). A Cell Titer-Glo assay (Promega cat #G7571; Madison Wis.) is used to measure ATP activity, which is conducted on the cells for normalization. The supernatant is tested in a PGE2 assay (Prostaglandin E2 Assay kit from Cisbio Bioassays cat #62P2APEB) according to the manufacturer's instructions. The PGE2 results are normalized to ATP activity. The PGE2 quantitation (pg/mL) from the supernatant is divided by the normalization factor (treatment ATP/control ATP).

[2] = cited from earlier work
[3] = 1:1 azoxystrobin:PO block, azoxystrobin 1E-7%
[4] = 1:10 azoxystrobin:PO block, azoxystrobin 1E-8%
[5] = 1:50 azoxystrobin:PO block, azoxystrobin 2E-9%
[6] = 4:1 azoxystrobin:PO block, azoxystrobin 4E-7%

## CO/C=C(/C(=O)OC)c1ccccc1Oc1cc(Oc2ccccc2C#N)ncn1 [azoxystrobin]
[1]; [3]
  AVG PGE2 % Control: 92%
  AVG PGE2 % Inhibition: 8%
[1]; [4]
  AVG PGE2 % Control: 99%
  AVG PGE2 % Inhibition: 1%
[1]; [5]
  AVG PGE2 % Control: 99%
  AVG PGE2 % Inhibition: 1%
[1]; [6]
  AVG PGE2 % Control: 87%
  AVG PGE2 % Inhibition: 13%
[1]
  Inhibiting PGE2 release from keratinocytes, individually (in words): relatively weak
[1]; example calculation vs vehicle control
  % inhibition (PGE2): 8%
[1]; example calculation, PGE2 quantitation divided by normalization factor, control 2458
  Normalized PGE2 value: 2261
[1]; example calculation, supernatant, before ATP normalization, vehicle control 2458 pg/mL
  PGE2 quantitation: 2347 pg/mL
TERT keratinocytes (tKC)
  Luminescence in ATP assay: 678903
[2]
  Solubility in water (in words): low solubility in water

## Cc1cc(CC(C)CC(C)(C)C)n(O)c(=O)c1.NCCO (centres unmarked) [piroctone olamine, 1-Hydroxy-4-methyl-6-(2,4,4-trimethylpentyl)-2-pyridone monoethanolamine salt]
[1]; [3]
  AVG PGE2 % Control: 96.5%
  AVG PGE2 % Inhibition: 3.5%
[1]; [4]
  AVG PGE2 % Control: 96.2%
  AVG PGE2 % Inhibition: 3.8%
[1]; [5]
  AVG PGE2 % Control: 96.2%
  AVG PGE2 % Inhibition: 3.8%
[1]; [6]
  AVG PGE2 % Control: 96.2%
  AVG PGE2 % Inhibition: 3.8%
[1]
  Inhibiting PGE2 release from keratinocytes, individually (in words): relatively weak
